Assay results published in patent US12274731B1, “Polybasic antimalarial agents and methods of use thereof” (priority 2018, dated 2025).
Where two headings read alike, the source gives them in different places.

Tests used:
[1] = tested on: Plasmodium falciparum (Dd2 and Nf54); experiment: P. falciparum growth assay / dose-response in human erythrocyte culture (parasitemia after 72 h, acridine orange, FACS); type: cell-based; settings: for parasite growth (endpoint parasitemia, percentage of control): 72-hour treatment, equal concentrations in the media; for IC50: P. falciparum in human erythrocytes, about 72 hours post compound addition
Description: FIG. 4A-FIG. 4D. […] DHHC8 transcript codes for five consecutive lie-residues. Levels of each transcript are normalized to total ribosome levels and represented as a ratio of transcript levels under Ile starvation (−Ile) over the control conditions (+Ile). […] Western blot analysis of Ile starved (−Ile), and control (+Ile) sample are normalized to PfHAD1 (PF3D7_1033400) levels. HA-tagged P. falciparum Pelo protein was CRISPR/Cas9 engineered and detected using mouse HA-antibody. The molecular weight of each protein is indicated. […] (D) P. falciparum growth assay in the presence of different compounds and amino acid polymers. Data represent endpoint parasitemia after 72-hour treatment with the indicated compound. Results are normalized to non-treated cultures (control) and presented as a percentage of control samples. Average value from three biological replicates is reported with standard deviation.
The lack of P. falciparum taxis during invasion of host cells, alterations in cytoadhesive properties of infected erythrocytes and previously shown invasion-blocking effects of heparin prompted testing whether poly-lysine repeats in P. falciparum membrane proteins contribute to the overall efficiency of parasite invasion of host erythrocytes.
For FIG. 21-FIG. 25, the general procedure for the drug assays included a total sample volume of 200 μl, every concentration was performed in triplicate, hematocrit was 2%, and starting parasitemia was 1%. The starting concentration of drug was 100 μg/ml and the serial dilution was made from the starting concentration. The end concentration was 0.39 μg/ml). The control represents growth of the parasite culture without added drug. All samples were subjected to Acridine orange staining and the FACS analysis was done on 96 well plates. FlowJo was used to calculate parasitemia.
Dose-response experiments were performed in triplicate with mixed culture of P. falciparum (1.0%-1.2% starting parasitemia). Parasitemias (percentage of total erythrocytes infected with parasites) were measured approximately 72 hours post compound addition by nucleic acid staining of infected red blood cells with 0.8 mg/ml acridine orange in PBS. Inhibition data were fit to a sigmoidal dose-response curve was done using Graphpad Prism 5.0.

uninfected human cells = experiment: Binding to uninfected human cells (fluorescence microscopy); type: cell-based
Procedure: Here, the same procedure as for above (FIG. 19) was performed for the cell culture, except for the incubation volume was 1 ml in PBS and the images were taken on a lab microscope.

[2] = tested on: mCherry labelled P. berghei; experiment: Treatment of mice infected with mCherry labelled P. berghei; type: in vivo; settings: 4 doses, over 7 days of infection
Description: Intraperitoneal treatment of mice results in the reduction of parasitemia over 2 days (see e.g., FIG. 25).

human erythrocytes = experiment: Hemolysis in erythrocyte culture; type: cell-based; settings: at IC50
[3] = Structure preservation of crystalline PLL; type: physicochemical; settings: 37° C.

Substance	parasite growth (endpoint parasitemia, percentage of control) [1]	binding to other human cells (uninfected human cells) (uninfected human cells)	IC50 [1]	activity against Plasmodium / malaria [1]	further results
poly-L-ornithine	efficient reduction of parasite growth	do not detectably bind			
poly-L-lysine	efficient reduction of parasite growth	do not detectably bind	9 µg/mL		parasitemia [2]: reduces parasitemia; hemolysis (human erythrocytes): without hemolysis; structure preservation [3]: preserves structure
poly-glutamate	did not affect the growth of parasites				
poly-ε-L-lysine				not shown to be effective	activity against Plasmodium / malaria ([1]; listed as Epsilon poly-lysine): did not appear to have activity
10-L-lysines (SEQ ID NO: 4): Poly (L) lysine of 10 residues in length, from Alamanda polymers (KKKKKKKKKK; Synthetic polybasic peptide)				no activity	
heparin	inhibiting parasite growth		12 µg/mL		
